Experimental data published in patent US20040185566A1, “Polypeptides toxic to nematodes and methods of use” (priority 2003, published 2004).
Where two headings read alike, the source gives them in different places. Where a SMILES comes first, the peptide text is derived from it. [ ]: non-standard residue; d: D form. The star is where a group is joined. Sta = CC(C)C[C@H](N)[C@@H](O)CC(=O)O; Isovaleryl = CC(C)CC(=O)*

Target: SMP #1 (Serratia marcescens, UniProt P23694, N428Q/P266L)
Format: biochemical, S. marcescens NRRL B-23112

CC(C)C[C@H](NC(=O)[C@@H](O)[C@H](N)Cc1ccccc1)C(=O)O [bestatin]
inhibition of SMP #1 proteolytic activity (bestatin 80 μg/ml): not inhibited

CC(C)C[C@H](NC(=O)[C@@H](NC(=O)N[C@@H](Cc1ccccc1)C(=O)O)[C@@H]1CCN=C(N)N1)C(=O)N[C@H](C=O)Cc1ccccc1 [chymostatin]
inhibition of SMP #1 proteolytic activity (chymostatin 50 μg/ml): not inhibited

CC(=O)N[C@@H](CC(C)C)C(=O)N[C@@H](CC(C)C)C(=O)N[C@H](C=O)CCCNC(=N)N [leupeptin]
inhibition of SMP #1 proteolytic activity (leupeptin 4 μg/ml): not inhibited

CC(C)CC(=O)N[C@H](C(=O)N[C@H](C(=O)N[C@@H](CC(C)C)[C@@H](O)CC(=O)N[C@@H](C)C(=O)N[C@@H](CC(C)C)[C@@H](O)CC(=O)O)C(C)C)C(C)C [pepstatin] (Isovaleryl-VV[Sta]A[Sta]-OH)
inhibition of SMP #1 proteolytic activity (pepstatin 4 μg/ml): not inhibited

O=S(=O)(F)Cc1ccccc1 [phenylmethylsulfonyl fluoride]
inhibition of SMP #1 proteolytic activity (phenylmethylsulfonyl fluoride 400 μ/ml): not inhibited

CC(C)C[C@H](NP(=O)(O)O[C@@H]1O[C@@H](C)[C@H](O)[C@@H](O)[C@H]1O)C(=O)N[C@@H](Cc1c[nH]c2ccccc12)C(=O)O [phosphoramidon]
inhibition of SMP #1 proteolytic activity (phosphoramidon 660 μ/ml): not inhibited
